How the values were obtained:
[1] = tested on: Escherichia coli ATCC 25922; assay: Minimum inhibitory concentration (MIC), CLSI broth micro-dilution, E. coli; type: cell-based; settings: Escherichia coli, ATCC25922, 22 h, Table 6, cation adjusted Mueller Hinton Broth + 0.002% Tween-80, 35° C.
Outline: (§1)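 Colonies grown 20 h at 35° C on Trypticase Soy agar (MRSA) or Luria agar (E. coli) were suspended in cation-adjusted Mueller Hinton broth with 0.002% Tween-80. Suspensions were added at OD600 0.0005 to 10-point twofold compound dilutions, then incubated 22 h at 35° C.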

[2] = tested on: Methicillin Resistant Staphylococcus aureus strain USA 200; assay: Minimum inhibitory concentration (MIC), CLSI broth micro-dilution, S. aureus; type: cell-based; settings: Staphylococcus aureus, MRSA / USA200; Table 6; MRSA USA 200; cation adjusted Mueller Hinton Broth + 0.002% Tween-80; 35° C., 22 hours
Outline: as §1

Row | Compound | MIC [1] [µM] | MIC [2] [µM]
1 | C[C@@H]1NC(=O)[C@@H](N(C)C(=O)[C@H](CCN)NC(=O)c2cnn(-c3ccc(C(C)(C)C)cc3)c(=O)c2)c2ccc(OCCN)c(c2)-c2cc(ccc2OCCN)C[C@@H](C(=O)NCC#N)NC1=O (racemic) [Compound 384, rac-(8S,11S,14S)-3,18-bis(2-aminoethoxy)-N-(cyanomethyl)-11-methyl-14-[methyl-[rac-(2S)-4-amino-2-[[1-(4-tert-butylphenyl)-6-oxo-pyridazine-4-carbonyl]amino]butanoyl]amino]-10,13-dioxo-9,12-diazatricyclo[13.3.1.12,6]icosa-1(18),2(20),3,5,15(19),16-hexaene-8-carboxamide] | 0.4 | 0.033
2 | Cc1nc(-c2ccc3c(c2)CCC3(C)C)nc(C)c1C(=O)N[C@@H](CCN)C(=O)N(C)[C@@H]1C(=O)N[C@@H](C)C(=O)N[C@H](C(=O)NCC#N)Cc2ccc(OCCN)c(c2)-c2cc1ccc2OCCN (racemic) [Compound 269, rac-(8S,11S,14S)-3,18-bis(2-aminoethoxy)-N-(cyanomethyl)-11-methyl-14-[methyl-[rac-(2S)-4-amino-2-[[2-(1,1-dimethylindan-5-yl)-4,6-dimethyl-pyrimidine-5-carbonyl]amino]butanoyl]amino]-10,13-dioxo-9,12-diazatricyclo[13.3.1.12,6]icosa-1(18),2(20),3,5,15(19),16-hexaene-8-carboxamide] | 0.094 | 0.016
3 | CCCCc1ccc(C#Cc2nc(C)c(C(=O)N[C@@H](CCN)C(=O)N(C)[C@@H]3C(=O)N[C@@H](C)C(=O)N[C@H](C(=O)NCC#N)Cc4ccc(OCCN)c(c4)-c4cc3ccc4OCCN)c(C)n2)cc1 (racemic) [Compound 308, rac-(8S,11S,14S)-3,18-bis(2-aminoethoxy)-N-(cyanomethyl)-11-methyl-14-[methyl-[rac-(2S)-4-amino-2-[[2-[2-(4-butylphenyl)ethynyl]-4,6-dimethyl-pyrimidine-5-carbonyl]amino]butanoyl]amino]-10,13-dioxo-9,12-diazatricyclo[13.3.1.12,6]icosa-1(18),2(20),3,5,15(19),16-hexaene-8-carboxamide] | 0.096 | 0.012
4 | Cc1nc(-c2ccc(C3CCCC3)cc2)ncc1C(=O)N[C@@H](CCN)C(=O)N(C)[C@@H]1C(=O)N[C@@H](C)C(=O)N[C@H](C(=O)NCC#N)Cc2ccc(OCCN)c(c2)-c2cc1ccc2OCCN (racemic) [Compound 230, rac-(8S,11S,14S)-3,18-bis(2-aminoethoxy)-N-(cyanomethyl)-11-methyl-14-[methyl-[rac-(2S)-4-amino-2-[[2-(4-cyclopentylphenyl)-4-methyl-pyrimidine-5-carbonyl]amino]butanoyl]amino]-10,13-dioxo-9,12-diazatricyclo[13.3.1.12,6]icosa-1(18),2(20),3,5,15(19),16-hexaene-8-carboxamide] | 0.066 | 0.012
5 | CCCCCc1ccc(-c2nc(C)c(C(=O)N[C@@H](CCN)C(=O)N(C)[C@@H]3C(=O)N[C@@H](C)C(=O)N[C@H](C(=O)NCC#N)Cc4ccc(O)c(c4)-c4cc3ccc4OCCN)c(C)n2)cc1 (racemic) [Compound 521, rac-(8S,11S,14S)-18-(2-aminoethoxy)-N-(cyanomethyl)-3-hydroxy-11-methyl-14-[methyl-[rac-(2S)-4-amino-2-[[4,6-dimethyl-2-(4-pentylphenyl)pyrimidine-5-carbonyl]amino]butanoyl]amino]-10,13-dioxo-9,12-diazatricyclo[13.3.1.12,6]icosa-1(18),2(20),3,5,15(19),16-hexaene-8-carboxamide] | 0.2 | 0.047
6 | Cc1nc(-c2ccc(C(C)(C)C)cc2)nc(N)c1C(=O)N[C@@H](CCN)C(=O)N(C)[C@@H]1C(=O)N[C@@H](C)C(=O)N[C@H](C(=O)NCC#N)Cc2ccc(O)c(c2)-c2cc1ccc2OCCN (racemic) [Compound 548, rac-(8S,11S,14S)-18-(2-aminoethoxy)-N-(cyanomethyl)-3-hydroxy-11-methyl-14-[methyl-[rac-(2S)-4-amino-2-[[4-amino-2-(4-tert-butylphenyl)-6-methyl-pyrimidine-5-carbonyl]amino]butanoyl]amino]-10,13-dioxo-9,12-diazatricyclo[13.3.1.12,6]icosa-1(18),2(20),3,5,15(19),16-hexaene-8-carboxamide] | 0.46 | 0.047

Second part, the compound after the results:

Row | MIC [1] [µM] | MIC [2] [µM] | Compound
7 | 1.5 | 0.016 | CCCCc1ccc(Oc2nc(C)c(C(=O)N[C@@H](CCN)C(=O)N(C)[C@@H]3C(=O)N[C@@H](C)C(=O)N[C@H](C(=O)NCC#N)Cc4ccc(OCCN)c(c4)-c4cc3ccc4OCCN)c(C)n2)cc1 (racemic) [Compound 354, rac-(8S,11S,14S)-3,18-bis(2-aminoethoxy)-N-(cyanomethyl)-11-methyl-14-[methyl-[rac-(2S)-4-amino-2-[[2-(4-butylphenoxy)-4,6-dimethyl-pyrimidine-5-carbonyl]amino]butanoyl]amino]-10,13-dioxo-9,12-diazatricyclo[13.3.1.12,6]icosa-1(18),2(20),3,5,15(19),16-hexaene-8-carboxamide]
8 | 0.063 | 0.0078 | Cc1nc(C2=CCC(C(C)(C)C)CC2)nc(C)c1C(=O)N[C@@H](CCN)C(=O)N(C)[C@@H]1C(=O)N[C@@H](C)C(=O)N[C@H](C(=O)NCC#N)Cc2ccc(OCCN)c(c2)-c2cc1ccc2OCCN (mixture of isomers) [Compound 295, rac-(8S,11S,14S)-3,18-bis(2-aminoethoxy)-N-(cyanomethyl)-11-methyl-14-[methyl-[rac-(2S)-4-amino-2-[[2-(4-tert-butylcyclohexen-1-yl)-4,6-dimethyl-pyrimidine-5-carbonyl]amino]butanoyl]amino]-10,13-dioxo-9,12-diazatricyclo[13.3.1.12,6]icosa-1(18),2(20),3,5,15(19),16-hexaene-8-carboxamide]
9 | 0.11 | 0.011 | Cc1nc(-c2ccc(OCCC(C)C)cc2)nc(C)c1C(=O)N[C@@H](CCN)C(=O)N(C)[C@@H]1C(=O)N[C@@H](C)C(=O)N[C@H](C(=O)NCC#N)Cc2ccc(OCCN)c(c2)-c2cc1ccc2OCCN (racemic) [Compound 329, rac-(8S,11S,14S)-3,18-bis(2-aminoethoxy)-N-(cyanomethyl)-11-methyl-14-[methyl-[rac-(2S)-4-amino-2-[[2-(4-isopentyloxyphenyl)-4,6-dimethyl-pyrimidine-5-carbonyl]amino]butanoyl]amino]-10,13-dioxo-9,12-diazatricyclo[13.3.1.12,6]icosa-1(18),2(20),3,5,15(19),16-hexaene-8-carboxamide]
10 | 0.5 | 0.023 | CCc1nc(-c2ccc(C(C)(C)C)cc2)nc(C)c1C(=O)N[C@@H](CCN)C(=O)N(C)[C@@H]1C(=O)N[C@@H](C)C(=O)N[C@H](C(=O)NCC#N)Cc2ccc(OCCN)c(c2)-c2cc1ccc2OCCN [Compound 485]
11 | 4.3 | 0.4 | CCCCCc1ccc(-c2nc(C)c(C(=O)N[C@H](CCN)C(=O)N(C)[C@@H]3C(=O)N[C@@H](C)C(=O)N[C@H](C(=O)NCC#N)Cc4ccc(OCCN)c(c4)-c4cc3ccc4OCCN)o2)cc1 (racemic) [Compound 382, 4-methyl-2-(4-pentylphenyl)-N-[rac-(1R)-3-amino-1-[methyl-[rac-(7S,10S,13S)-3,18-bis(2-aminoethoxy)-13-(cyanomethylcarbamoyl)-10-methyl-8,11-dioxo-9,12-diazatricyclo[13.3.1.12,6]icosa-1(19),2,4,6(20),15,17-hexaen-7-yl]carbamoyl]propyl]oxazole-5-carboxamide]

Source: patent US20260274892A1, “MACROCYCLIC BROAD SPECTRUM ANTIBIOTICS” (RQx Pharmaceuticals, Inc., priority 2017, published 2026)
